We go through two compounds from paper PMC7665192, “A natriuretic peptide from Arabidopsis thaliana (AtPNP-A) can modulate catalase 2 activity” (Scientific Reports, 2020).

Positions of bridges follow the written chain, without caps; N, C: chain ends. Residues, ends and D or L forms follow the SMILES beside them. *: point of attachment. Biotin = O=C1N[C@H]2[C@H](CS[C@H]2CCCCC(=O)*)N1

One assay deals with CAT. The assay is described as follows: Total CAT activity in protein extracted from WT seedlings. The assay is classed as biochemical, Arabidopsis thaliana. The conditions noted are these: 1 nM. The procedure:
Enzymatic activity of CAT isozymes and total CAT activities of protein extracted from WT and atpnp-a or cat2-2 mutant lines, when indicated sprayed with 1 nM pAtPNP-A or pScr 20 min before harvesting, were determined zymographically and spectrophotometrically, as described in[56]. Relative quantification of intensity of bands corresponding to different CAT isoforms was performed with ImageJ version 1.48 (https://imagej.nih.gov/ij/). Enzymatic activity of the rCAT2 in the presence of absence of 100 nM rAtPNP-A, pAtPNP-A or pScr were determined with the use of Amplex Red catalase assay kit (Invitrogen) according to the manufacturer’s instructions.
Figure 3 AtPNP-A directly interacts with CAT2 to modulate its enzymatic activity in vitro. (a) Zymogram depicting changes in the enzymatic activity of CAT isoforms extracted from wild type (WT) or cat2-2 knockout mutant seedlings in response to 1 nM pAtPNP-A or pScr. Densitometric semi-quantification of bands corresponding to CAT2, normalized to the loading control (dark-coloured band on zymogram) for WT samples treated with 1 nM pAtPNP-A or pScr (mean ± SD, Student’s t-test, n = 3, P < 0.05). […] (b) Total CAT activity in protein extracted from WT seedlings assayed with Amplex Red catalase assay kit in the presence of 1 nM pAtPNP-A, rAtPNP-A, or pScr. […] (c) Enzymatic activity of rCAT2 in the presence of 100 nM pAtPNP-A, rAtPNP-A, or pScr.

Another assay concerns rCAT2. The assay is described as follows: SPR of CAT2 and AtPNP-A recombinant proteins, CM5 chip, both configurations. The assay is classed as binding, Arabidopsis thaliana. The conditions noted are these: amine coupling, 20 °C. The procedure: N-terminally 6xHis-tagged AtPNP-A and CAT2 proteins were expressed in BL21 (DE3) One Shot E. coli cells (Life Technologies), purified by affinity chromatography with Ni–NTA beads (Qiagen) and HisTrap HP column (GE Healthcare Lifesciences) as described in[21]. The purity of preparations was verified on 12.5% SDS-PAGE, stained with Coomassie Brilliant Blue (Bio-Rad). Protein identities were confirmed in MS analysis, and protein concentration was determined according to the method of Bradford using BSA as a standard.
SPR experiments were performed at 20 °C on Biacore T100 instrument operated using Biacore T100 control software (version 2.0.2, GE Healthcare Lifesciences) using Series S CM5 or NTA sensor chips as described in[21]. Kinetic analyses were performed at the flow of 100 μL min^−1 with pAtPNP-A (at 3.78 μM and consecutive twofold dilutions; 11 injections included) employed as a ligand and bovine liver CAT (C-40; Sigma) used as an analyte and immobilized on the active surface of the Series S CM5 sensor chip with amine coupling kit, while the surface regeneration was done with solution of glycine, pH 2.0, and the final sensorgram was generated with Scrubber (BioLogic Software Pty Ltd).
Supplementary Figure S3. In vitro association of AtPNP-A and CAT2 recombinant proteins.
(a) Recombinant protein preparations used in SPR analyses. […]

In a further assay the test system is COL1, constans-like 1. Nature of the assay: Yeast two-hybrid (Y2H) screen. To be noted: bait AtPNP-A amino acids 26–130, prey At5g15850.1. The assay is classed as binding, A. thaliana. The procedure:
(§1) The Y2H screen using AtPNP-A as bait was carried out by Dualsystems Biotech AG (Zurich, Switzerland). The bait construct for the screening was made by subcloning the cDNA fragment encoding exported portion of AtPNP-A (amino acids 26 to 130) (Fig. 1a) into the pLexA-DIR vector (Dualsystems Biotech AG). The bait construct was transformed into the strain NMY32 (MATa his3Δ200 trp1-901 leu2-3,112 (lexAop)8-ADE2 LYS2::(lexAop)4-HIS3 URA3::(lexAop)8-lacZ GAL4) using standard procedures. Correct expression of the bait was verified by western blotting of cell extracts using a mouse monoclonal antibody directed against the LexA domain (Dualsystems Biotech AG). The absence of self-activation was verified by co-transformation of the bait together with a control prey and selection on minimal medium lacking tryptophan, leucine, and histidine (selective medium). For the Y2H screen, the bait was co-transformed together with a normalized A. thaliana universal P02403 cDNA library (Dualsystems Biotech AG) into NMY32. 3.1 × 10^6 transformants were screened, yielding 96 transformants that grew on selective medium. […] Library plasmids were isolated from positive clones. The identity of positive interactants was determined by sequencing. DNA sequences translated in all three reading frames and searching against the SwissProt database using the BLASTX algorithm (https://blast.ncbi.nlm.nih.gov).

The next assay deals with Expr, expansin-like B1. Nature of the assay: Yeast two-hybrid (Y2H) screen. It is filed as binding, A. thaliana. The conditions noted are these: bait AtPNP-A amino acids 26–130, prey At4g17030.1. The procedure:
as §1

The subject of assay [1] is PGR1, photosynthetic electron transfer C. Nature of the assay: Yeast two-hybrid (Y2H) screen. The conditions noted are these: bait AtPNP-A amino acids 26–130, prey At4g03280.1. The assay is classed as binding, A. thaliana. The procedure:
as §1

Consider `CC(C)C[C@@H]1NC(=O)[C@H](CC(N)=O)NC(=O)[C@H](CC(N)=O)NC(=O)[C@H](CCCCN)NC(=O)[C@H](C(C)C)NC(=O)CNC(=O)[C@H](C(C)C)NC(=O)[C@H](C(C)C)NC(=O)[C@H](CC(C)C)NC(=O)[C@H]([C@@H](C)O)NC(=O)[C@H](CCC(=O)O)NC(=O)[C@H](CCCNC(=N)N)NC(=O)[C@H](CCC(N)=O)NC(=O)[C@H]([C@@H](C)O)NC(=O)CNC(=O)[C@H](Cc2ccc(O)cc2)NC(=O)[C@@H](NC(=O)[C@H](C)NC(=O)[C@H](CO)NC(=O)[C@H](CCCNC(=N)N)NC(=O)[C@@H](NC(=O)[C@H](Cc2ccc(O)cc2)NC(=O)[C@@H]2CCCN2)[C@@H](C)O)CSSC[C@@H](C(=O)NCC(=O)N[C@@H](CCCNC(=N)N)C(=O)N[C@@H](CCCNC(=N)N)C(=O)N[C@@H](Cc2ccc(O)cc2)C(=O)N[C@@H](CCCNC(=N)N)C(=O)N[C@H](C(=O)N[C@@H](CCCNC(=N)N)C(=O)N[C@@H](CCCCNC(=O)CCCC[C@@H]2SC[C@@H]3NC(=O)N[C@@H]32)C(=O)O)C(C)C)NC(=O)[C@H](C)NC(=O)[C@H](CCCNC(=N)N)NC(=O)CNC(=O)[C@H](CC(N)=O)NC(=O)[C@H](CCC(N)=O)NC(=O)[C@H](Cc2c[nH]c3ccccc23)NC1=O` [pAtPNP-A] (H-PYTRSACYGTQRETLVVGVKNNLWQNGRACGRRYRVRK(Biotin)-OH; disulfide 7-30; N-terminus and C-terminus assumed), for which the “Total CAT activity of protein extracts” value with CAT (WT seedling protein, Amplex Red kit, mean ± SD, n = 3, P < 0.05) is on record as “elevated total CAT activity”. For the same compound, in the assay with CAT (total protein extracted from WT seedlings, n = 3), the “H2O2 breakdown by WT seedling protein extract” value is on record as “more rapid H2O2 breakdown”.

As to “AtPNP-A: An A. thaliana PNP, termed AtPNP-A (At2g18660; Q9ZV52)”, in the assay on rCAT2, the “SPR binding of recombinant AtPNP-A to CAT2” value was “specific AtPNP-A and CAT2 interaction in vitro”. Further, the Strength of binding entry is “Weak” in the assay with COL1, constans-like 1; “Weak” in the assay on Expr, expansin-like B1; “Weak” in assay [1].
